# Laboratory results published in ChEMBL document CHEMBL1133023, “Deoxy sugar analogues of triciribine: correlation of antiviral and antiproliferative activity with intracellular phosphorylation” (J Med Chem, 2000).
# What was measured:
# Assay type in all cases: functional, cell-based
# [1] = Antiviral activity was tested using an enzyme-linked immunosorbent assay (ELISA) to detect HSV-1 (herpes simplex virus type 1) using BSC-1 cells; details: Cercopithecidae
# [2] = tested on: HFF; assay: HCMV plaque assay was performed using HFF cells and effect was calculated as a percentage of reduction in number of plaques; details: Homo sapiens
# [3] = tested on: KB; assay: Inhibition of KB cell growth was assessed; details: Homo sapiens
# [4] = tested on: CEM-SS; assay: Intracellular phosphorylation (100 uM) in uninfected CEM-SS cells was studied after 24 hrs of Incubation time; Value ranges from 3-5; details: Homo sapiens
# [5] = tested on: HFF; assay: Tested for visual cytotoxicity on uninfected HFF cells; details: Homo sapiens
# [6] = tested on: L1210; assay: Tested in vitro for cytotoxicity against murine L1210 leukemic cells; details: Mus musculus
# [7] = tested on: CEM-SS; assay: Tested for visual cytotoxicity on uninfected CEM-SS cells; details: Homo sapiens
# [8] = tested on: CEM-SS; assay: Intracellular phosphorylation (100 uM) in uninfected CEM-SS cells was studied after 24 hrs of Incubation time; details: Homo sapiens
Compound,IC50 [1],IC50 [2],IC50 [3],Concentration [4],IC50 [5],IC50 [6],IC50 [7],Concentration [8]
CN1N=C(N)c2cn([C@H]3C=C[C@@H](CO)O3)c3ncnc1c23,> 100 µM,> 100 µM,> 100 µM,< 5 µM,> 100 µM,> 100 µM,> 100 µM,–
CN1N=C(N)c2cn(C3C[C@@H](O)[C@@H](CO)O3)c3ncnc1c23 (some centres not stated),> 100 µM,> 100 µM,> 100 µM,< 5 µM,> 100 µM,> 100 µM,> 100 µM,–
CN1N=C(N)c2cn([C@@H]3O[C@H](CO)C[C@H]3O)c3ncnc1c23,6 µM,> 100 µM,16 µM,–,> 100 µM,2.2 µM,100 µM,276 µM
CN1N=C(N)c2cn([C@@H]3O[C@H](COP(=O)(O)O)[C@@H](O)[C@H]3O)c3ncnc1c23 [TRICIRIBINE PHOSPHATE],20 µM,0.8 µM,10 µM,–,19 µM,0.025 µM,> 1 µM,–
CN1N=C(N)c2cn([C@H]3CC[C@@H](CO)O3)c3ncnc1c23,> 100 µM,> 100 µM,> 100 µM,–,> 100 µM,25 µM,> 100 µM,45 µM
C[C@H]1OC(n2cc3c4c(ncnc42)N(C)N=C3N)[C@H](O)[C@@H]1O (some centres not stated),> 100 µM,> 100 µM,> 100 µM,< 5 µM,> 100 µM,> 100 µM,> 100 µM,–
CN1N=C(N)c2cn(C3O[C@H](CO)[C@H]4O[C@H]34)c3ncnc1c23 (some centres not stated),65 µM,> 100 µM,> 100 µM,–,> 100 µM,–,> 100 µM,< 5 µM
